Source: patent US20220305001A1, “METHODS OF TREATING ACUTE MYELOID LEUKEMIA WITH FARNESYLTRANSFERASE INHIBITORS” (Kura Oncology, Inc., priority 2019, published 2022)

Key:
AML [1] = assay: Tipifarnib treatment of relapsed or refractory AML patients, survival analysed by mRNA expression of FLT3LG/CXCR4; format: in vivo, human
Experimental: (§1) Previous clinical studies with tipifarnib were performed in newly diagnosed AML in elderly patients with poor risk AML or relapsed and refractory AML. In these studies, patient selection was not based on genetic markers. Anecdotal evidence of tipifarnib single agent activity was reported.

AML [2] = assay: Tipifarnib treatment of previously untreated elderly or unfit AML patients, survival analysed by mRNA expression of FLT3LG/CXCR4; format: in vivo, human
Experimental: as §1

[3] = first three quartiles of FLT3LG expression
[4] = highest FLT3LG tertile and highest CXCR4 tertile (N=10)
[5] = highest quintile of FLT3LG expression
[6] = rest of patients with either lower FLT3LG or lower CXCR4 expression (N=47)
[7] = highest FLT3LG expression tertile
[8] = second FLT3LG expression tertile
[9] = third tertile (lowest level of FLT3LG expression)

Compound: Cn1cncc1[C@@](N)(c1ccc(Cl)cc1)c1ccc2c(c1)c(-c1cccc(Cl)c1)cc(=O)n2C [tipifarnib]
- median overall survival (mOS) (AML [1]; [3]): 54 to 83 days
- median progression free survival (mPFS) (AML [1]; [3]): 28 to 29 days
- median overall survival (mOS) (AML [1]; [4]): 234 days
- median progression free survival (mPFS) (AML [1]; [4]): 148 days
- median overall survival (mOS) (AML [1]; [5]): 234 days
- median progression free survival (mPFS) (AML [1]; [5]): 119 days
- median overall survival (mOS) (AML [1]; [6]): 84 days
- median progression free survival (mPFS) (AML [1]; [6]): 29 days
- median overall survival (mOS) (AML [2]; [7]): 548 days
- median progression free survival (mPFS) (AML [2]; [7]): 247 days
- median overall survival (mOS) (AML [2]; [8]): 153 days
- median progression free survival (mPFS) (AML [2]; [8]): 64 days
- median overall survival (mOS) (AML [2]; [9]): 76 days
- median progression free survival (mPFS) (AML [2]; [9]): 35 days
